Data: ChEMBL document CHEMBL4420075, “Seriniquinones, melanoma-specific anticancer agents” (2016)
The source made the active and inactive calls. No cut-off for these calls is given here.

Assays:
HCT-116 [1] = assay: Induction of autophagy in human HCT116 cells assessed as increase in of LC3A-II level at 17 uM incubated for 24 hrs by Western blot analysis; format: functional, cell-based
HCT-116 [2] = assay: Induction of autophagy in human HCT116 cells assessed as increase in of LC3B-II level at 17 uM incubated for 24 hrs by Western blot analysis; format: functional, cell-based
CCRF-CEM = assay: Growth inhibition of human CCRF-CEM cells assessed as cell growth incubated for 48 hrs by sulforhodamine B assay; format: functional; parameters: concentration or dose not given beside the values
U-251 = assay: Growth inhibition of human U251 cells assessed as cell growth incubated for 48 hrs by sulforhodamine B assay; format: functional; parameters: concentration or dose not given beside the values
PC-3 = assay: Growth inhibition of human PC3 cells assessed as cell growth incubated for 48 hrs by sulforhodamine B assay; format: functional; parameters: concentration or dose not given beside the values
HT-29 = assay: Growth inhibition of human HT-29 cells assessed as cell growth incubated for 48 hrs by sulforhodamine B assay; format: functional; parameters: concentration or dose not given beside the values
NCI-H460 = assay: Growth inhibition of human NCI-H460 cells assessed as cell growth incubated for 48 hrs by sulforhodamine B assay; format: functional; parameters: concentration or dose not given beside the values
UACC-62 = assay: Growth inhibition of human UACC62 cells assessed as cell growth incubated for 48 hrs by sulforhodamine B assay; format: functional; parameters: concentration or dose not given beside the values
K562 = assay: Growth inhibition of human K562 cells assessed as cell growth incubated for 48 hrs by sulforhodamine B assay; format: functional; parameters: concentration or dose not given beside the values
OVCAR-5 = assay: Growth inhibition of human OVCAR5 cells assessed as cell growth incubated for 48 hrs by sulforhodamine B assay; format: functional; parameters: scale not given: the % may be the effect or the level left
OVCAR-4 = assay: Growth inhibition of human OVCAR4 cells assessed as cell growth incubated for 48 hrs by sulforhodamine B assay; format: functional; parameters: concentration or dose not given beside the values
RPMI-8226 = assay: Growth inhibition of human RPMI8226 cells assessed as cell growth incubated for 48 hrs by sulforhodamine B assay; format: functional; parameters: concentration or dose not given beside the values
SNB-75 = assay: Growth inhibition of human SNB75 cells assessed as cell growth incubated for 48 hrs by sulforhodamine B assay; format: functional; parameters: concentration or dose not given beside the values
A498 = assay: Growth inhibition of human A498 cells assessed as cell growth incubated for 48 hrs by sulforhodamine B assay; format: functional; parameters: concentration or dose not given beside the values
BT-549 = assay: Growth inhibition of human BT549 cells assessed as cell growth incubated for 48 hrs by sulforhodamine B assay; format: functional; parameters: concentration or dose not given beside the values
SK-MEL-2 = assay: Growth inhibition of human SK-MEL-2 cells assessed as cell growth incubated for 48 hrs by sulforhodamine B assay; format: functional; parameters: concentration or dose not given beside the values
SK-MEL-28 = assay: Growth inhibition of human SK-MEL-28 cells assessed as cell growth incubated for 48 hrs by sulforhodamine B assay; format: functional; parameters: concentration or dose not given beside the values
MDA-MB-468 = assay: Growth inhibition of human MDA-MB-468 cells assessed as cell growth incubated for 48 hrs by sulforhodamine B assay; format: functional; parameters: concentration or dose not given beside the values
IGROV-1 = assay: Growth inhibition of human IGROV1 cells assessed as cell growth incubated for 48 hrs by sulforhodamine B assay; format: functional; parameters: scale not given: the % may be the effect or the level left
SF-268 = assay: Growth inhibition of human SF268 cells assessed as cell growth incubated for 48 hrs by sulforhodamine B assay; format: functional; parameters: concentration or dose not given beside the values
SR = assay: Growth inhibition of human SR cells assessed as cell growth incubated for 48 hrs by sulforhodamine B assay; format: functional; parameters: concentration or dose not given beside the values
SN12C = assay: Growth inhibition of human SN12C cells assessed as cell growth incubated for 48 hrs by sulforhodamine B assay; format: functional; parameters: concentration or dose not given beside the values
SK-OV-3 = assay: Growth inhibition of human SKOV3 cells assessed as cell growth incubated for 48 hrs by sulforhodamine B assay; format: functional; parameters: concentration or dose not given beside the values
A549 = assay: Growth inhibition of human A549/ATCC cells assessed as cell growth incubated for 48 hrs by sulforhodamine B assay; format: functional; parameters: concentration or dose not given beside the values
HCT-116 [3] = assay: Growth inhibition of human HCT116 cells assessed as cell growth incubated for 48 hrs by sulforhodamine B assay; format: functional; parameters: concentration or dose not given beside the values
Malme-3M = assay: Growth inhibition of human MALME-3M cells assessed as cell growth incubated for 48 hrs by sulforhodamine B assay; format: functional; parameters: scale not given: the % may be the effect or the level left
OVCAR-3 = assay: Growth inhibition of human OVCAR3 cells assessed as cell growth incubated for 48 hrs by sulforhodamine B assay; format: functional; parameters: concentration or dose not given beside the values
NCI-H23 = assay: Growth inhibition of human NCI-H23 cells assessed as cell growth incubated for 48 hrs by sulforhodamine B assay; format: functional; parameters: concentration or dose not given beside the values
M14 = assay: Growth inhibition of human M14 cells assessed as cell growth incubated for 48 hrs by sulforhodamine B assay; format: functional; parameters: concentration or dose not given beside the values
NCI-H226 = assay: Growth inhibition of human NCI-H226 cells assessed as cell growth incubated for 48 hrs by sulforhodamine B assay; format: functional; parameters: concentration or dose not given beside the values
UO-31 = assay: Growth inhibition of human UO31 cells assessed as cell growth incubated for 48 hrs by sulforhodamine B assay; format: functional; parameters: concentration or dose not given beside the values
OVCAR-8 = assay: Growth inhibition of human OVCAR8 cells assessed as cell growth incubated for 48 hrs by sulforhodamine B assay; format: functional; parameters: concentration or dose not given beside the values
COLO 205 = assay: Growth inhibition of human COLO205 cells assessed as cell growth incubated for 48 hrs by sulforhodamine B assay; format: functional; parameters: concentration or dose not given beside the values
UACC-257 = assay: Growth inhibition of human UACC257 cells assessed as cell growth incubated for 48 hrs by sulforhodamine B assay; format: functional; parameters: concentration or dose not given beside the values
NCI-H522 = assay: Growth inhibition of human NCI-H522 cells assessed as cell growth incubated for 48 hrs by sulforhodamine B assay; format: functional; parameters: concentration or dose not given beside the values
T47D = assay: Growth inhibition of human T47D cells assessed as cell growth incubated for 48 hrs by sulforhodamine B assay; format: functional; parameters: concentration or dose not given beside the values
SF-539 = assay: Growth inhibition of human SF539 cells assessed as cell growth incubated for 48 hrs by sulforhodamine B assay; format: functional; parameters: scale not given: the % may be the effect or the level left
LOX IMVI = assay: Growth inhibition of human LOXIMVI cells assessed as cell growth incubated for 48 hrs by sulforhodamine B assay; format: functional; parameters: concentration or dose not given beside the values
HCC 2998 = assay: Growth inhibition of human HCC2998 cells assessed as cell growth incubated for 48 hrs by sulforhodamine B assay; format: functional; parameters: concentration or dose not given beside the values
TK-10 = assay: Growth inhibition of human TK10 cells assessed as cell growth incubated for 48 hrs by sulforhodamine B assay; format: functional; parameters: concentration or dose not given beside the values
NCI-H322M = assay: Growth inhibition of human NCI-H322M cells assessed as cell growth incubated for 48 hrs by sulforhodamine B assay; format: functional; parameters: scale not given: the % may be the effect or the level left
SF-295 = assay: Growth inhibition of human SF295 cells assessed as cell growth incubated for 48 hrs by sulforhodamine B assay; format: functional; parameters: concentration or dose not given beside the values
KM12 = assay: Growth inhibition of human KM12 cells assessed as cell growth incubated for 48 hrs by sulforhodamine B assay; format: functional; parameters: concentration or dose not given beside the values
MCF7 = assay: Growth inhibition of human MCF7 cells assessed as cell growth incubated for 48 hrs by sulforhodamine B assay; format: functional; parameters: concentration or dose not given beside the values
HOP-92 = assay: Growth inhibition of human HOP92 cells assessed as cell growth incubated for 48 hrs by sulforhodamine B assay; format: functional; parameters: concentration or dose not given beside the values
HCT-15 = assay: Growth inhibition of human HCT15 cells assessed as cell growth incubated for 48 hrs by sulforhodamine B assay; format: functional; parameters: scale not given: the % may be the effect or the level left
RXF 393 = assay: Growth inhibition of human RXF393 cells assessed as cell growth incubated for 48 hrs by sulforhodamine B assay; format: functional; parameters: concentration or dose not given beside the values
MOLT-4 = assay: Growth inhibition of human MOLT4 cells assessed as cell growth incubated for 48 hrs by sulforhodamine B assay; format: functional; parameters: concentration or dose not given beside the values
NCI/ADR-RES = assay: Growth inhibition of human NCI/ADR-RES cells assessed as cell growth incubated for 48 hrs by sulforhodamine B assay; format: functional; parameters: concentration or dose not given beside the values
DU-145 = assay: Growth inhibition of human DU145 cells assessed as cell growth incubated for 48 hrs by sulforhodamine B assay; format: functional; parameters: concentration or dose not given beside the values
HL-60(TB) = assay: Growth inhibition of human HL-60(TB) cells assessed as cell growth incubated for 48 hrs by sulforhodamine B assay; format: functional; parameters: concentration or dose not given beside the values
SK-MEL-5 = assay: Growth inhibition of human SK-MEL-5 cells assessed as cell growth incubated for 48 hrs by sulforhodamine B assay; format: functional; parameters: concentration or dose not given beside the values
SNB-19 = assay: Growth inhibition of human SNB19 cells assessed as cell growth incubated for 48 hrs by sulforhodamine B assay; format: functional; parameters: concentration or dose not given beside the values
Hs-578T = assay: Growth inhibition of human Hs 578T cells assessed as cell growth incubated for 48 hrs by sulforhodamine B assay; format: functional; parameters: concentration or dose not given beside the values
SW-620 = assay: Growth inhibition of human SW620 cells assessed as cell growth incubated for 48 hrs by sulforhodamine B assay; format: functional; parameters: concentration or dose not given beside the values
MDA-MB-435 = assay: Growth inhibition of human MDA-MB-435 cells assessed as cell growth incubated for 48 hrs by sulforhodamine B assay; format: functional; parameters: concentration or dose not given beside the values
CAKI-1 = assay: Growth inhibition of human Caki1 cells assessed as cell growth incubated for 48 hrs by sulforhodamine B assay; format: functional; parameters: concentration or dose not given beside the values
HOP-62 = assay: Growth inhibition of human HOP62 cells assessed as cell growth incubated for 48 hrs by sulforhodamine B assay; format: functional; parameters: concentration or dose not given beside the values
786-0 = assay: Growth inhibition of human 786-0 cells assessed as cell growth incubated for 48 hrs by sulforhodamine B assay; format: functional; parameters: concentration or dose not given beside the values
MDA-MB-231 = assay: Growth inhibition of human MDA-MB-231 cells assessed as cell growth incubated for 48 hrs by sulforhodamine B assay; format: functional; parameters: concentration or dose not given beside the values
ACHN = assay: Growth inhibition of human ACHN cells assessed as cell growth incubated for 48 hrs by sulforhodamine B assay; format: functional; parameters: scale not given: the % may be the effect or the level left

In the case of COc1cc([C@@H]2c3cc4c(cc3[C@@H](O[C@@H]3O[C@@H]5CO[C@@H](C)O[C@H]5[C@H](O)[C@H]3O)[C@H]3COC(=O)[C@H]23)OCO4)cc(OC)c1O, the Activity (HCT-116 [1]) is reported as “Active” and the Activity (HCT-116 [2]) is reported as “Active”.
With O=c1c2ccccc2c(=O)c2c1sc1c(=O)c3ccc(CCCO)cc3c(=O)c12 the Activity (CCRF-CEM) was -42.44%, the Activity (U-251) was -92.1% and the Activity (PC-3) was -10.27%. For the same compound, the Activity (HT-29) was -50.87%, the Activity (NCI-H460) was -65.79% and the Activity (UACC-62) was -88.56%. The Activity (K562) was -26.48%, the Activity (OVCAR-5) was -95.91% and the Activity (OVCAR-4) was -100%. The Activity (RPMI-8226) was -37.51%, the Activity (SNB-75) was -96.48% and the Activity (A498) was -93%. It also gave an Activity (BT-549) of -95.56%, an Activity (SK-MEL-2) of -72.58% and an Activity (SK-MEL-28) of -91.59%. The Activity (MDA-MB-468) was -69.73%, the Activity (IGROV-1) was -77.75% and the Activity (SF-268) was -52.35%. The Activity (SR) was -22.18%, the Activity (SN12C) was -85.36% and the Activity (SK-OV-3) was -74.3%. It also gave an Activity (A549) of -66.71%, an Activity (HCT-116 [3]) of -56.49% and an Activity (Malme-3M) of -94.59%. For the same compound, the Activity (OVCAR-3) was -43.56%, the Activity (NCI-H23) was -39.8% and the Activity (M14) was -94.97%. For the same compound, the Activity (NCI-H226) was -53.49%, the Activity (UO-31) was -96.45% and the Activity (OVCAR-8) was -30.24%. For the same compound, the Activity (COLO 205) was -100%, the Activity (UACC-257) was -98.14% and the Activity (NCI-H522) was -73.7%. The Activity (T47D) was -45.39%, the Activity (SF-539) was -100% and the Activity (LOX IMVI) was -80.49%. For the same compound, the Activity (HCC 2998) was -89.21%, the Activity (TK-10) was -94.99% and the Activity (NCI-H322M) was -96.79%. The Activity (SF-295) was -93.12%, the Activity (KM12) was -60.46% and the Activity (MCF7) was -57.56%. The Activity (HOP-92) was -25.51%, the Activity (HCT-15) was -68.1% and the Activity (RXF 393) was -77.25%. The Activity (MOLT-4) was -48.47%, the Activity (NCI/ADR-RES) was -22.56% and the Activity (DU-145) was -98.88%. For the same compound, the Activity (HL-60(TB)) was -39.5%, the Activity (SK-MEL-5) was -100% and the Activity (SNB-19) was -83.74%. The Activity (Hs-578T) was -11.73%, the Activity (SW-620) was -71.53% and the Activity (MDA-MB-435) was -94.78%. The Activity (CAKI-1) was -39.14%, the Activity (HOP-62) was -100% and the Activity (786-0) was -90.2%. The Activity (MDA-MB-231) was -36.34% and the Activity (ACHN) was -100%.
